Reference: patent publication US20210275545A1, “METHOD OF TREATING CANCER PREFERABLY CHARACTERIZED BY EXPRESSION OF A FUSION PROTEIN COMPRISING A MEMBER OF THE E-TWENTY-SIX FAMILY BY ADMINISTERING AN AGENT THAT INHIBITS THE SYNTHESIS AND/OR ACTIVITY OF CORTISOL” (Yeda Research and Development Co. Ltd., priority 2018, published 2021)

Legend:
[1] = target: T1, GR and ERG (Homo sapiens, UniProt P04150)
Experimental: (§1) (A) The scheme presents the full length Gaussia luciferase protein, along with either the amino-terminal segment (Gluc1), which was fused to an ETS family transcription factor, or the carboxyl terminal segment (Gluc2), which was fused to GR. Amino acid numbers are indicated. cDNAs encoding most members of the ETS family (16 members altogether) were cloned downstream to Gluc1. […] (B) HEK-293T cells (6×10^3) were seeded in 96-well plates. On the next day, cells were transfected with combinations of the Gluc1 plasmid, encoding a fused ETS family member, and the Gluc2 plasmid encoding a fused full-length GR. […] Cells were then lysed and luminescence was determined in biological triplicates. […] (D and E) HEK-293T cells were seeded in 100-mm dishes. Once they reached sub-maximal density (70%), cells were starved overnight for serum factors. […] Cell extracts were then processed for co-immunoprecipitation assays, in which the endogenous FLI1 or ERG protein was immunoprecipitated using a specific antibody, and immunoblotting was performed using an antibody against GR. EB, empty beads; C, solvent control. Images shown are representative of three biological replicates.
Proximity ligation assay (PLA), extraction of cells, co-immunoprecipitation and cell migration/invasion assays: These assays were performed exactly as recently reported.

[2] = system: glucocorticoid response element (GRE); conditions: naïve cells, endogenous GR; 100 nM, 24 hours
Experimental: HEK-293T cells (1.2×10^4) were seeded in 48-well plates. […] In addition, cells were co-transfected with increasing amounts of a GR expression vector (A), a FLI1-encoding vector (B) or with a combination of both a FLI1 vector and a vector encoding GR, either wild type (C) or a mutant receptor (GRdim−, panel D). Luciferase activity was determined, in biological triplicates, 48 hours later and presented in bar plots. Cells that were pre-transfected with the reporter plasmid were used for normalization. *, p≤0.05; ***, p≤0.001. […] This was followed by cell lysis and determination of luciferase activity in biological triplicates.
Luciferase-reporter assays: Cells were co-transfected with a luciferase plasmid containing the consensus glucocorticoid response element (GRE) along with pGL3-Control (Promega, Madison, Wis.). Luciferase activity was determined using the dual-luciferase reporter assay system (Promega). Firefly luciferase luminescence values were normalized to Renilla luminescence.

[3] = target: T2, MR and ERG (Homo sapiens, UniProt P08235); assay: PCA, Gluc1-ERG + MR-Gluc2; format: cell-based; conditions: DEX 1 μM, 60 minutes
T2 construct: expressed in transfected cells; host or cells: HEK-293T
T2 sequence (P08235 1-984): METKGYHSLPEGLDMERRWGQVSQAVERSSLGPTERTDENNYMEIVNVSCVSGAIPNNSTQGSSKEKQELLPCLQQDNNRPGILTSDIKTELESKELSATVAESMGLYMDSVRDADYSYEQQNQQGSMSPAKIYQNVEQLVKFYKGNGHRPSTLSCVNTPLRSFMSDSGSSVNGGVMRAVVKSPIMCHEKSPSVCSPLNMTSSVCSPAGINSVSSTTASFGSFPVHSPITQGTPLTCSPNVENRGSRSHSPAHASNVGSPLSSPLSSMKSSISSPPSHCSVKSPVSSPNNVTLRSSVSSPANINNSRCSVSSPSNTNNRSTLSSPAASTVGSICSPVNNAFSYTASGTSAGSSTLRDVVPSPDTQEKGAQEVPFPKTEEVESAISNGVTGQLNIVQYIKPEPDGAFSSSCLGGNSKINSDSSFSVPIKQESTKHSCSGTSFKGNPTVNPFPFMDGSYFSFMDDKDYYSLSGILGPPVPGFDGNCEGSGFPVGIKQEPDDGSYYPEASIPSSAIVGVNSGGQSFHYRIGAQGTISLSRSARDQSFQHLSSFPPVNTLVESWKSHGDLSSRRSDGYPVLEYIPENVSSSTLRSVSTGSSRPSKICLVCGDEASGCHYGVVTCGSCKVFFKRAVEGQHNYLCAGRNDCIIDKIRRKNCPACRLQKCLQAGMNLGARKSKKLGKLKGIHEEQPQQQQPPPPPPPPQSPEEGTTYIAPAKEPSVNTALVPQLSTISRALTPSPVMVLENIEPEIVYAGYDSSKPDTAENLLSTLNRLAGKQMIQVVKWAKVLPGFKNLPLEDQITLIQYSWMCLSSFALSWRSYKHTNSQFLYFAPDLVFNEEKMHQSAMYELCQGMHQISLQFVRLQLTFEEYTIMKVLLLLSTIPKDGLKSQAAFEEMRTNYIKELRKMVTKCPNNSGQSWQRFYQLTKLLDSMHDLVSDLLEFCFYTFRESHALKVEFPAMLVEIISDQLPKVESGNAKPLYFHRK
T2 sequence (P11308 1-486 isoform P11308-3 partner): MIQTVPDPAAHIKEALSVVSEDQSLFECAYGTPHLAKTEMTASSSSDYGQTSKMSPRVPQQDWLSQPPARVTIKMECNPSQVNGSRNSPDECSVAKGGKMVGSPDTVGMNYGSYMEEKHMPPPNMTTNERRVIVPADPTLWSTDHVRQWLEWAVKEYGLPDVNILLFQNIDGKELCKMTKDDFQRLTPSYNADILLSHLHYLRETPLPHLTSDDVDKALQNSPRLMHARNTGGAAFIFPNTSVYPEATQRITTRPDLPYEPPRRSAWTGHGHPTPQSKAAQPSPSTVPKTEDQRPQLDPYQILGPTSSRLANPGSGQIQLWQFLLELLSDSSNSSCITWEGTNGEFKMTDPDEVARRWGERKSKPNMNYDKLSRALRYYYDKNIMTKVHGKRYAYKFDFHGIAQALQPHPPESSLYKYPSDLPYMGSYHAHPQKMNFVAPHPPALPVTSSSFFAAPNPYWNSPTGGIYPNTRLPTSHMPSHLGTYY
Experimental: Cells were then lysed and luminescence was determined.

[4] = target: T1, GR and ERG; remark: listed apart in the source
Experimental: as §1
(A) HEK-293T cells (6×10^3) were seeded in 96-well plates. On the next day, the cells were transfected with combinations of the Gluc1 plasmid, encoding fused FLI1 or ERG, and the Gluc2 plasmid encoding GR. […] Cells were then lysed and luminescence was determined in each sample. Luminescence of vehicle-treated cells was used for normalization. […] (B) HEK-293T cells were seeded on coverslips in 6-well plates. […] Images were processed using the Zeiss ZEN2011 software. […] Bars, 20 μm.
Protein-fragment complementation assays (PCA): PCA was performed as previously described.

[5] = system: A673 tumors; assay: Immunoblotting of A673 tumor extracts; format: in vivo, SCID mice
Experimental: FIGS. 13A-B: A GR antagonist and a cortisol-lowering drug induce markers of cell death in animal models of Ewing's sarcoma. (A) RD-ES tumors presented in FIG. 6A were extracted and analyzed using immunoblotting and the indicated antibodies. Note that tumors from three different mice per group were analyzed. (B) Whole extracts prepared from the tumors presented in FIG. 6D were analyzed using immunoblotting and the indicated antibodies. Note that tumors from three different mice per group were analyzed.
ES animal model studies: All animal experiments were approved by the Weizmann Institute's Animal Care and Use Committee. RD-ES cells and A673 cells (2.5×10^6) were inoculated subcutaneously in the right legs of female SCID mice (6 weeks old). Tumor growth was monitored once every 3 days using a caliper. […] Mice were euthanized when tumor size reached 800-900 mm^3. For metastasis assays, luciferase-labeled TC-71 cells (10^6) were injected orthotopically into the tibia of female SCID mice. Once the primary tumor reached the allowed size limit, we excised the lungs and examined metastases using luciferase bioluminescence imaging.

[6] = system: A673 xenograft; assay: A673 xenograft tumor growth; format: in vivo, SCID mice; conditions: 25 mg/kg daily
Description: FIGS. 6A-E. A GR antagonist and a cortisol-lowering drug impede growth of human xenograft models of Ewing's sarcoma. (A) RD-ES cells (2×10^6) were implanted subcutaneously in the right flank of SCID mice. […] The means of tumor volumes (+SEM) are shown. […] (B) Shown are representative images of immunofluorescent staining for KI67 in paraffin-embedded sections of tumors from A, using an antibody against KI67. Scale bars, 100 μm. Also shown is the scatter plot depicting quantification of KI67 staining in randomly selected 4 fields of a representative tumor from each group. […] (C and D) A673 cells (2×10^6) were implanted in female SCID mice. […] Each group was daily treated with either vehicle, or Metyrapone (25 mg/kg) and tumorigenic growth was monitored. Actual tumor volumes (±SEM) are presented. Also shown are tumors harvested from each group of animals; **p<0.001. (E) TC-71 cells (10^6) engineered to stably express luciferase were injected into the tibia of female SCID mice (5 weeks old; 7 mice per group). […] The control group was similarly treated with the solvent (0.1% tween 80). When the primary tumor reached 10% of body weight, the lungs were excised and examined for metastasis using luciferase bioluminescence imaging. […] Luminescence was quantified and presented in a bar graph. […] Tumor growth was monitored once every 3 days using a caliper. […]

T1 sequence (P04150 whole entry, the tested form may be a part): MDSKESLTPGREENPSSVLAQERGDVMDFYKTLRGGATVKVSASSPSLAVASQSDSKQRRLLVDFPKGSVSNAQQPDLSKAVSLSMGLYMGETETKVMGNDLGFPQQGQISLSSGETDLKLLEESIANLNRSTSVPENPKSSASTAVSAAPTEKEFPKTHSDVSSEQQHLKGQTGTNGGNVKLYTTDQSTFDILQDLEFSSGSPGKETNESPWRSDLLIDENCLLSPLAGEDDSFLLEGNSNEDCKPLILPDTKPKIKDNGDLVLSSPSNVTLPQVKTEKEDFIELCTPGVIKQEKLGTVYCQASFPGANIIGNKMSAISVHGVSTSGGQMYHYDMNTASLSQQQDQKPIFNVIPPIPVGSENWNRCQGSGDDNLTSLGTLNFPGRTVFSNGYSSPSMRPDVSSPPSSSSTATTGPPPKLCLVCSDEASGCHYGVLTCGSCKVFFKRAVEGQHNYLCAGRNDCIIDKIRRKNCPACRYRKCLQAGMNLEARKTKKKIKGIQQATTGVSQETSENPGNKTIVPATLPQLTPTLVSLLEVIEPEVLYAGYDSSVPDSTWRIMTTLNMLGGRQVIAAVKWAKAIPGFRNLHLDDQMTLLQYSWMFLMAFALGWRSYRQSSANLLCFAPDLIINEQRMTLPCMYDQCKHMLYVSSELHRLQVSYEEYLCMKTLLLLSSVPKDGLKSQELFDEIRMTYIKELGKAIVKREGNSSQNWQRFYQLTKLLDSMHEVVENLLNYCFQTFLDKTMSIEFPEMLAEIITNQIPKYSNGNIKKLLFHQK

In the case of `C[C@@H]1C[C@H]2[C@@H]3CCC4=CC(=O)C=C[C@]4(C)[C@@]3(F)[C@@H](O)C[C@]2(C)[C@@]1(O)C(=O)CO` [DEX, dexamethasone], the “co-immunoprecipitation of GR and ERG” value [1] is reported as “enhanced”, the “increase of GRE activity (luciferase)” value [2] is reported as 40 fold and the “interaction between MR and ERG (PCA)” value [3] is reported as “stimulated strong interactions”. For the same compound, the “luciferase activity (PCA), GR-ERG interaction” value [4] was “highly significant increases” and the “time of peak of GR-ERG signals after stimulation (PCA)” value [4] was “peaked earlier”.

`CC(C)(C(=O)c1cccnc1)c1cccnc1` [metyrapone] was tested, and the γH2AX in tumors [5] was “elevated” and the tumor growth rates [6] was “clear and statistically significant decrease”.
